Measured values as given in PubChem BioAssay (NCI).
Where “and” joins values, the source holds several entries; their conditions need not be identical. Identical values can stand only once.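 A five-concentration, 48-hour dose response in 96-well plates underlies each endpoint, interpolated linearly between surrounding concentrations. The concentration for 50% growth inhibition is given as GI50. The concentration for full growth arrest is given as TGI.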

Legend:
Assay in all cases: NCI tumour cell line growth inhibition, 48 h
SK-OV-3 ovarian = system: SK-OV-3 ovarian
OVCAR-8 ovarian = system: OVCAR-8 ovarian
TK-10 renal = system: TK-10 renal
OVCAR-4 ovarian = system: OVCAR-4 ovarian
U251 CNS = system: U251 CNS
MOLT-4 leukemia = system: MOLT-4 leukemia
OVCAR-5 ovarian = system: OVCAR-5 ovarian
HL-60(TB) leukemia = system: HL-60(TB) leukemia
NCI/ADR-RES ovarian = system: NCI/ADR-RES ovarian

| Structure (SMILES) | GI50 (SK-OV-3 ovarian) [µM] | TGI (SK-OV-3 ovarian) | GI50 (OVCAR-8 ovarian) [µM] | TGI (OVCAR-8 ovarian) | GI50 (TK-10 renal) [µM] | TGI (TK-10 renal) | GI50 (OVCAR-4 ovarian) [µM] | TGI (OVCAR-4 ovarian) [µM] | GI50 (U251 CNS) [µM] | TGI (U251 CNS) | GI50 (MOLT-4 leukemia) [µM] | TGI (MOLT-4 leukemia) | GI50 (OVCAR-5 ovarian) [µM] | TGI (OVCAR-5 ovarian) | GI50 (HL-60(TB) leukemia) [µM] | TGI (HL-60(TB) leukemia) [µM] | GI50 (NCI/ADR-RES ovarian) [µM] | TGI (NCI/ADR-RES ovarian) [µM] |
| --- | --- | --- | --- | --- | --- | --- | --- | --- | --- | --- | --- | --- | --- | --- | --- | --- | --- | --- |
| Nc1nccc(-c2c(-c3ccc(F)cc3)ncn2C2CCC(O)CC2)n1 (stereo not given) | 3.97 | 12.2 µM | 12.3 | > 25 µM | 3.72 | 24.4 µM | 2.92 | > 25 | 9.99 | > 25 µM | 22.5 | > 25 µM | 8.45 | > 25 µM | 24.4 | > 25 | > 18 | > 25 |
| COc1ccc2c(c1)C(=O)c1c-2n(CCCn2ccnc2)c(=O)c2cc([N+](=O)[O-])ccc12 | < 0.01 | 1.88 µM | < 0.01 | > 45.7 µM | 0.14 | > 95.8 µM | – | > 100 | < 0.01 | 0.166 µM | < 0.01 | – | < 0.0156 | – | < 0.01 | 16.1 | < 0.01 | 0.192 |
| C#CCNC(=O)c1cccc2c1cc(C)n2-c1nc2c(c(NCc3ccccc3)n1)CCCC2 | 0.056 | 0.232 µM | 0.0312 | 0.363 µM | 0.0345 | 0.111 µM | 0.022 | 0.0709 | 0.0254 | 0.0646 µM | 0.0229 | 0.075 µM | 0.0461 | 0.154 µM | 0.029 | 0.191 | 0.0281 | 0.101 |
| O=C(CCc1nnc2sc(-c3ccc(Cl)cc3Cl)nn12)c1nc2ccccc2[nH]1 | 1.77 | 3.46 µM | 1.48 | > 23.4 µM | 1.29 | 2.77 µM | 0.639 | 3.55 | 0.932 | 2.26 µM | 0.29 | – | 1.96 | 4.23 µM | 1.24 | 5.52 | 1.42 | 6.15 |
| CCN(CC)CCCC(C)Nc1c2ccc(Cl)cc2nc2ccc(O)cc12 (stereo not given) | 3.12 | 16 µM | 1.73 | 11.7 µM | 1.74 | 3.91 µM | 1.88 | 4.66 | 2.49 | 11.4 µM | 1.31 | 13.6 µM | 2.21 | 7.78 µM | 2.06 | 6.25 | 11 | 26.4 |
| O=C1C(Cl)=C(NCCN2CCOCC2)C(=O)c2ncccc21 | 2.26 | 3.36 µM and 7.23 µM | – | 3.79 µM and 3.29 µM | 16.5 | 3.44 µM and 30.3 µM | 1.85 | 3.88 | 1.87 | 3.12 µM and 3.3 µM | 2.24 | 4.01 µM and 5.27 µM | – | 3.59 µM and 3.56 µM | 1.43 | 4.44 | 4.6 | 30.8 |
| O=C(O)C(=Cc1ccc(-c2ccccc2)cc1)C(=O)O | – | 41.2 µM | – | > 92 µM | – | 30.7 µM | – | 41.2 | – | 25.9 µM | – | 53.6 µM | – | > 55.6 µM | – | 26.6 | – | > 94 |
| COC(=O)Nc1nc2ccc(Oc3ccc(NC(=O)Nc4cc(C(F)(F)F)ccc4F)cc3)cc2s1 | > 25 | > 25 µM | 8.67 | > 25 µM | > 25 | > 25 µM | 7.24 | > 20.2 | 13.6 | > 25 µM | > 25 | > 25 µM | > 25 | > 25 µM | > 13.5 | > 25 | 14.5 | > 25 |
| O=c1cc(-c2ccccc2)oc2cc(OC/C(=N/O)c3ccccc3)ccc12 | 12.1 | 32.5 µM | 32.8 | > 50 µM | 7.18 | 19.9 µM | 30.5 | > 50 | 10.1 | 20 µM | > 50 | > 50 µM | > 50 | > 50 µM | > 50 | > 50 | 19.8 | > 50 |
| COc1ccc(-c2nc(-c3nc4ccc(Cl)cc4[nH]3)c3ccccn23)cc1 | 2.24 | 4.99 µM | 2.4 | 6.69 µM | 2.01 | 5.11 µM | 1.89 | 4.74 | 3.16 | 11.3 µM | > 100 | > 100 µM | 7.32 | 29.3 µM | 49.8 | > 100 | 2.78 | 9.2 |
| Cc1ccc(C(=O)N(CCCN)C(c2oc3cc(Cl)ccc3c(=O)c2Cc2ccccc2)C(C)C)cc1 (stereo not given) | < 0.01 | 1.57 µM | < 0.01 | 1.79 µM | 1.11 | 2.37 µM | 0.899 | 2.47 | < 0.01 | 1.37 µM | < 0.01 | 2.94 µM | < 0.01 | 1.78 µM | < 0.01 | 0.126 | 0.11 | 1.17 |
| COc1cc2ncn(-c3cc(OCc4cccs4)c(C(N)=O)s3)c2cc1OC | 1.81 | > 20 µM | 1.52 | > 17 µM | 9.21 | > 25 µM | 7.97 | > 25 | 1.48 | > 25 µM | 1.07 | > 25 µM | 2.55 | > 25 µM | 0.804 | 8.73 | 2.22 | > 25 |
| CCCCCCCC[C@@H](O)CC(=O)N[C@@H](CC(N)=O)C(=O)N[C@@H](CCC(N)=O)C(=O)N[C@@H](CC(=O)c1cc(C)cc(O)c1C(=O)c1c(O)cccc1O)CC(C)C | 12.6 | > 100 µM | 3.23 | 46.6 µM | 0.179 | 1.26 µM | 2.07 | > 100 | 0.265 | 2.33 µM | 0.308 | > 100 µM | – | 27.7 µM | 1.89 | > 100 | 39.6 | > 100 |
| O=C1c2cccc([N+](=O)[O-])c2C(=O)N1c1ncn[nH]1 | – | > 100 µM | – | > 100 µM | – | > 100 µM | – | > 100 | – | > 100 µM | – | > 100 µM | – | > 100 µM | – | > 100 | – | > 100 |
| CCCC(=O)OCC1OC(n2cnc3c(=S)nc[nH]c32)C(OC(=O)CCC)C1OC(=O)CCC (stereo not given) | 0.804 | 69.8 µM | 4.2 | > 100 µM | 2.78 | > 100 µM | 0.802 | > 100 | 62 | > 100 µM | 3.06 | 39.1 µM | 4.76 | > 100 µM | 2.6 | 9.96 | 8.15 | > 100 |
